US20260200919A1, “SUBSTITUTED AMINOPYRIDINE COMPOUNDS AND METHODS OF TREATING DISEASE USING SAME” (Atavistik Bio, Inc., priority 2023, published 2026)

How the values were obtained:
[1] = molecular target: T1, human recombinant kinase full-length AKT1 E17K (Homo sapiens, UniProt P31749, E17K); assay: AKT1 E17K kinase assay (TR-FRET, Lance); format: biochemical; conditions: 0.6 nM AKT1 E17K, 50 nM Ulight-CREBtide, either 50 μM ATP or 2 mM ATP (not specified which), 60 min at RT
T1 construct: Purified human recombinant kinase full-length AKT1 E17K was expressed in insect cells; made in house; host or cells: insect cells
Method in brief: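 Full-length human AKT1 E17K (insect cell-expressed, PDPK1-activated; 0.6 nM) with 50 nM ULight-CREBtide in HEPES pH 7.5 with MgCl2 and DTT. ATP at 50 μM or 2 mM, 1% DMSO, 10-point dose response, 60 min at RT.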

[2] = molecular target: T2, human recombinant kinase full-length wildtype AKT1 (Homo sapiens, UniProt P31749); assay: AKT1 kinase assay (wildtype, TR-FRET, Lance); format: biochemical; conditions: 0.6 nM wildtype AKT1, 50 nM Ulight-CREBtide, either 50 μM ATP or 2 mM ATP (not specified which), 60 min at RT
T2 construct: Purified human recombinant kinase full-length wildtype AKT1 was expressed in insect cells; made in house; host or cells: insect cells
Method in brief: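 Insect-cell-expressed AKT1, activated in vitro by PDPK1, was used at 0.6 nM with 50 nM Ulight-CREBtide and 50 μM or 2 mM ATP in 50 mM HEPES pH 7.5, 1% DMSO, over a 10-point dose response.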

T1 sequence (P31749 whole entry E17K): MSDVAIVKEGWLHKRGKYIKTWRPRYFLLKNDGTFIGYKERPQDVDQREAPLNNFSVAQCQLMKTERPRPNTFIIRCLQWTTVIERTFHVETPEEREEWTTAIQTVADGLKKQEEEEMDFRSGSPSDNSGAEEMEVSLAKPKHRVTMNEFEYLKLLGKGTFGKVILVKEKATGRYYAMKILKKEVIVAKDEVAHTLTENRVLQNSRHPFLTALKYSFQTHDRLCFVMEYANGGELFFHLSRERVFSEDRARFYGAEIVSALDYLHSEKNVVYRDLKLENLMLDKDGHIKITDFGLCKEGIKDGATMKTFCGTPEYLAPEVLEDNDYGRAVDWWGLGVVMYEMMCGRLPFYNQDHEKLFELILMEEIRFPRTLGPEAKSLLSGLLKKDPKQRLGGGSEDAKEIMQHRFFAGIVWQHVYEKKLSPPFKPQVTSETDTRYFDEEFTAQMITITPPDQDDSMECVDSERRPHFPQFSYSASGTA
T2 sequence (P31749 whole entry): as the sequence (P31749 whole entry E17K) above, with K17E counted along it

| Structure (SMILES) | IC50 [1] [nM] | IC50 [2] [nM] |
| --- | --- | --- |
| CCNC(=O)Cc1cccc(C(=O)NCc2ccc(-n3c(-c4cccnc4N)nc4ccc(-c5ccccc5)nc43)cc2)c1 [Compound 44, N-(4-(2-(2-aminopyridin-3-yl)-5-phenyl-3H-imidazo[4,5-b]pyridin-3-yl)benzyl)-3-(2-(ethylamino)-2-oxoethyl)benzamide] | > 500 | < 500 |
| CC(C)c1ccc2nc(-c3cccnc3N)n(-c3ccc(NC(=O)c4ccc(C(=O)O)cc4)nc3)c2c1 [Compound 172, 4-((5-(2-(2-aminopyridin-3-yl)-6-isopropyl-1H-benzo[d]imidazol-1-yl)pyridin-2-yl)carbamoyl)benzoic acid] | > 500 | < 500 |
| COC(=O)c1ccccc1C(=O)N1CC(c2ccc(-n3c(-c4cccnc4N)nc4ccc(-c5ccccc5)nc43)cc2)C1 [Compound 73, methyl 2-(3-(4-(2-(2-aminopyridin-3-yl)-5-phenyl-3H-imidazo[4,5-b]pyridin-3-yl)phenyl)azetidine-1-carbonyl)benzoate] | > 500 | < 500 |
| Nc1ncccc1-c1nc2ccc(C(F)(F)F)cc2n1-c1ccc(CNC(=O)c2cccc(CC(=O)O)c2)cc1 [Compound 107, 2-(3-((4-(2-(2-aminopyridin-3-yl)-6-(trifluoromethyl)-1H-benzo[d]imidazol-1-yl)benzyl)carbamoyl)phenyl) acetic acid] | > 500 | > 500 |
| Nc1ncccc1-c1nc2ccc(-c3ccccc3)nc2n1-c1ccc(NC(=O)c2cccc(CCC(=O)O)c2)cc1 [Compound 57, 3-(3-((4-(2-(2-aminopyridin-3-yl)-5-phenyl-3H-imidazo[4,5-b]pyridin-3-yl)phenyl)carbamoyl)phenyl) propanoic acid] | < 50 | < 500 |
| NC(=O)Cc1cccc(C(=O)NCc2ccc(-n3c(-c4cccnc4N)nc4ccc(-c5ccccc5)nc43)cc2)c1 [Compound 43, 3-(2-amino-2-oxoethyl)-N-(4-(2-(2-aminopyridin-3-yl)-5-phenyl-3H-imidazo[4,5-b]pyridin-3-yl)benzyl)benzamide] | > 500 | < 500 |
| Nc1ncccc1-c1nc2ccc(-c3ccccc3)nc2n1-c1ccc(CNC(=O)c2ccc(CC(=O)O)cc2)cc1 [Compound 30, 2-(4-((4-(2-(2-aminopyridin-3-yl)-5-phenyl-3H-imidazo[4,5-b]pyridin-3-yl)benzyl)carbamoyl)phenyl)acetic acid] | 50 to 200 | < 500 |
| Nc1ncccc1-c1nc2ccc(C(F)(F)F)nc2n1-c1ccc(CNC(=O)c2ccc(C(=O)O)cc2)cc1 [Compound 99, 4-((4-(2-(2-aminopyridin-3-yl)-5-(trifluoromethyl)-3H-imidazo[4,5-b]pyridin-3-yl)benzyl)carbamoyl)benzoic acid] | > 500 | < 500 |
| Nc1ncccc1-c1nc2ccc(-c3ccccc3)nc2n1-c1ccc(CNC(=O)c2cc(F)cc(C(=O)O)c2)cc1 [Compound 21, 3-((4-(2-(2-aminopyridin-3-yl)-5-phenyl-3H-imidazo[4,5-b]pyridin-3-yl)benzyl)carbamoyl)-5-fluorobenzoic acid] | < 50 | < 500 |
| CC(=O)Nc1cccc(-c2cnc3c(c2)nc(-c2cccnc2N)n3-c2ccc(CNC(=O)c3cccc(CC(=O)O)c3)cc2)c1 [Compound 83, 2-(3-((4-(6-(3-acetamidophenyl)-2-(2-aminopyridin-3-yl)-3H-imidazo[4,5-b]pyridin-3-yl)benzyl)carbamoyl)phenyl) acetic acid] | 200 to 500 | < 500 |
| Nc1ncccc1-c1nc2ccc(-c3ccccc3)nc2n1-c1ccc(NC(=O)c2cc(F)c(C(=O)O)c(F)c2)nc1 [Compound 150] | < 50 | < 500 |
| Cc1nc(NC(=O)c2ccc(C(=O)O)cc2F)ccc1-n1c(-c2cccnc2N)nc2ccc(-c3ccccc3)nc21 [Compound 148] | 50 to 200 | < 500 |
| C[C@H](c1ccc(C(=O)O)cc1)N1CC(c2ccc(-n3c(-c4cccnc4N)nc4ccc(-c5ccccc5)nc43)cc2)C1 (single isomer, unassigned) [Compound 125] | 50 to 200 | < 500 |
| Cc1cc(C(=O)O)ccc1C(=O)NCc1ccc(-n2c(-c3cccnc3N)nc3ccc(C(F)(F)F)cc32)cc1 [Compound 105, 4-((4-(2-(2-aminopyridin-3-yl)-6-(trifluoromethyl)-1H-benzo[d]imidazol-1-yl)benzyl)carbamoyl)-3-methylbenzoic acid] | > 500 | < 500 |
| Nc1ncccc1-c1nc2ccc(-c3ccccc3)nc2n1-c1ccc(NC(=O)c2cccc(CC(=O)O)c2)nc1 [Compound 64, 2-(3-((5-(2-(2-aminopyridin-3-yl)-5-phenyl-3H-imidazo[4,5-b]pyridin-3-yl)pyridin-2-yl)carbamoyl)phenyl) acetic acid] | < 50 | < 500 |
| CC(C)[C@H](c1ccc(C(=O)O)cc1)N1CC(c2ccc(-n3c(-c4cccnc4N)nc4ccc(-c5ccccc5)nc43)cc2)C1 [Compound 161] | 200 to 500 | < 500 |
| Nc1ncccc1-c1nc2ccc(-c3ccccc3)nc2n1-c1ccc(NC(=O)c2ccc(C(=O)O)cc2)cc1 [Compound 53] | < 50 | < 500 |
| Nc1ncccc1-c1nc2ccc(-c3ccccc3)nc2n1-c1ccc(C2CN(C(=O)c3cccc(C(=O)O)c3)C2)cc1 [Compound 72, 3-(3-(4-(2-(2-aminopyridin-3-yl)-5-phenyl-3H-imidazo[4,5-b]pyridin-3-yl)phenyl)azetidine-1-carbonyl)benzoic acid] | 50 to 200 | < 500 |
| COC(=O)Cc1cccc(C(=O)NCc2ccc(-n3c(-c4cccnc4N)nc4cc(-c5cccnc5)cnc43)cc2)c1 [Compound 89, methyl 2-(3-((4-(2-(2-aminopyridin-3-yl)-6-(pyridin-3-yl)-3H-imidazo[4,5-b]pyridin-3-yl)benzyl)carbamoyl)phenyl)acetate] | > 500 | < 500 |
| Cc1cc(C(=O)O)ccc1C(=O)N1CC(c2ccc(-n3c(-c4cccnc4N)nc4ccc(-c5ccccc5)nc43)cc2)C1 [Compound 75, 4-(3-(4-(2-(2-aminopyridin-3-yl)-5-phenyl-3H-imidazo[4,5-b]pyridin-3-yl)phenyl)azetidine-1-carbonyl)-3-methylbenzoic acid] | < 50 | < 500 |
| COc1ccc2nc(-c3cccnc3N)n(-c3ccc(CNC(=O)c4ccc(C(=O)O)cc4C)cc3)c2c1 [Compound 102, 4-((4-(2-(2-aminopyridin-3-yl)-6-methoxy-1H-benzo[d]imidazol-1-yl)benzyl)carbamoyl)-3-methylbenzoic acid] | > 500 | < 500 |
| Nc1ncccc1-c1nc2ccc(-c3ccc(F)cc3)nc2n1-c1ccc(NC(=O)c2ccc(C(=O)O)cc2)nc1 [Compound 109, 4-((5-(2-(2-aminopyridin-3-yl)-5-(4-fluorophenyl)-3H-imidazo[4,5-b]pyridin-3-yl)pyridin-2-yl)carbamoyl)benzoic acid] | 50 to 200 | < 500 |
